This passage reports GI50 and TGI results from PubChem BioAssay (NCI).

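48-hour exposure; five concentrations; linearly interpolated endpoints. GI50 is the concentration that inhibits growth by half. TGI is the concentration that stops growth completely.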

Some test systems named below: ACHN renal; CCRF-CEM leukemia; HOP-62 NSCLC; HT29 colon; OVCAR-8 ovarian; RPMI-8226 leukemia; RXF 393 renal; SF-268 CNS; SK-MEL-5 melanoma; UACC-257 melanoma.
What all share (assay): NCI tumour cell line growth inhibition, 48 h

For the compound `Nc1nc(Cl)cc2c1ncn2C1OC(CO)C(O)C1O` (centres undefined), the GI50 in the assay on ACHN renal, with CCRF-CEM leukemia, with HOP-62 NSCLC, with HT29 colon, with OVCAR-8 ovarian and with RPMI-8226 leukemia was greater than 100 µM in each case. Also, the GI50 in the assay on RXF 393 renal, with SF-268 CNS, with SK-MEL-5 melanoma and in the assay on UACC-257 melanoma was greater than 100 µM throughout. Also, the TGI with ACHN renal, in the assay with CCRF-CEM leukemia, in the assay with HOP-62 NSCLC, with HT29 colon, with OVCAR-8 ovarian and with RPMI-8226 leukemia was greater than 100 µM throughout. The TGI with RXF 393 renal, with SF-268 CNS, in the assay with SK-MEL-5 melanoma and with UACC-257 melanoma was greater than 100 µM throughout.
Turning to `COc1ccc(NC(=O)CC(=O)n2nc(-c3ccccc3)c(N=Nc3ccc(C)cc3)c2-c2ccccc2)cc1`, the TGI with ACHN renal was 60.9 µM; in the assay with CCRF-CEM leukemia it was greater than 100 µM; in the assay on HOP-62 NSCLC it was 38.4 µM; with HT29 colon it was greater than 100 µM; in the assay with OVCAR-8 ovarian, 63.3 µM; in the assay on RPMI-8226 leukemia, greater than 100 µM. Moreover, the TGI in the assay on RXF 393 renal is 46.4 µM; in the assay with SF-268 CNS, 53.4 µM; with SK-MEL-5 melanoma, greater than 78.1 µM; in the assay with UACC-257 melanoma, greater than 95.8 µM.
`COC(=O)C1=C(O)C(C(=O)OC)[C@@]2(O)[C@@H](C(=O)OC)C(c3ccccc3C(F)(F)F)C[C@@H]1[C@@H]2C(=O)OC` (some centres undefined): the GI50 in the assay with ACHN renal was 1.61 µM; in the assay with CCRF-CEM leukemia, 2.13 µM; in the assay on HOP-62 NSCLC, 20.4 µM; in the assay with HT29 colon it was 0.228 µM; in the assay on OVCAR-8 ovarian, 10.1 µM; in the assay with RPMI-8226 leukemia it was 2.4 µM. Besides, the GI50 with RXF 393 renal was 3.11 µM; in the assay with SF-268 CNS, 12.2 µM; in the assay with SK-MEL-5 melanoma, 3.46 µM; in the assay with UACC-257 melanoma, 6.39 µM. The TGI in the assay with ACHN renal is 3.05 µM; with CCRF-CEM leukemia, 11.2 µM; in the assay with HOP-62 NSCLC it was 36.4 µM; in the assay on HT29 colon, 5.3 µM; in the assay on OVCAR-8 ovarian, 24.5 µM; in the assay with RPMI-8226 leukemia, greater than 100 µM. The TGI came out at 7.65 µM in the assay on RXF 393 renal, 30.3 µM in the assay with SF-268 CNS, 13.2 µM in the assay on SK-MEL-5 melanoma and 20.3 µM in the assay on UACC-257 melanoma.
Turning to `N=C(N)c1ccc(-c2ccc(-c3ccco3)o2)cc1`, the GI50 is 4.24 µM in the assay with ACHN renal; 3.11 µM with CCRF-CEM leukemia; 10.4 µM in the assay on HOP-62 NSCLC; 2.78 µM with HT29 colon; 8.22 µM in the assay with OVCAR-8 ovarian; 2.51 µM in the assay on RPMI-8226 leukemia. The GI50 with RXF 393 renal is 4.68 µM; with SF-268 CNS it was 4.85 µM; with SK-MEL-5 melanoma, 2.67 µM; in the assay with UACC-257 melanoma it was 1.84 µM. The TGI in the assay on ACHN renal came to 15.3 µM; with CCRF-CEM leukemia it was 15.2 µM; in the assay on HOP-62 NSCLC, 23 µM; in the assay on HT29 colon it was 8.47 µM; in the assay on OVCAR-8 ovarian it was 30.7 µM; in the assay on RPMI-8226 leukemia it was 7.52 µM. Further, the TGI came to 18.4 µM in the assay with RXF 393 renal, 18.7 µM in the assay with SF-268 CNS, 9.76 µM with SK-MEL-5 melanoma and 3.73 µM in the assay with UACC-257 melanoma.
Take `O=c1c2ccccc2oc2nccnc12`: the TGI in the assay with ACHN renal, in the assay with CCRF-CEM leukemia, with HOP-62 NSCLC, with HT29 colon, in the assay with OVCAR-8 ovarian and in the assay with RPMI-8226 leukemia was greater than 100 µM in each case. For the same compound, the TGI in the assay on RXF 393 renal, with SF-268 CNS, with SK-MEL-5 melanoma and with UACC-257 melanoma was greater than 100 µM each time.
With `O=C(CC1Sc2ccccc2NC1=O)Nc1ccc([N+](=O)[O-])cc1[N+](=O)[O-]` (centres undefined), the TGI was 30.3 µM with ACHN renal; 39.6 µM in the assay with CCRF-CEM leukemia; greater than 100 µM with HOP-62 NSCLC; 33.1 µM in the assay on HT29 colon; 31 µM with OVCAR-8 ovarian; 32.3 µM with RPMI-8226 leukemia. The TGI was found to be 26.3 µM in the assay on RXF 393 renal, 30.9 µM in the assay with SF-268 CNS, 33.4 µM in the assay with SK-MEL-5 melanoma and 46.2 µM in the assay on UACC-257 melanoma.
Consider `CC(=O)O/N=C1\C=Cc2c(no[n+]2[O-])C1=O`, for which the TGI with ACHN renal was 30.9 µM; with CCRF-CEM leukemia, 17.6 µM; in the assay on HOP-62 NSCLC, greater than 100 µM; in the assay with HT29 colon, 32.4 µM; with OVCAR-8 ovarian, 25.4 µM; in the assay with RPMI-8226 leukemia, 62 µM. Moreover, the TGI was determined as 28.5 µM in the assay with RXF 393 renal, 38.1 µM with SF-268 CNS, 31.6 µM with SK-MEL-5 melanoma and 32.2 µM in the assay with UACC-257 melanoma.
In the case of `N#CC1(Cc2ccccc2Cl)c2ccccc2C=CN1C(=O)c1ccccc1` (centres undefined), the TGI with ACHN renal, in the assay on CCRF-CEM leukemia, in the assay with HOP-62 NSCLC, in the assay on HT29 colon, in the assay on OVCAR-8 ovarian and with RPMI-8226 leukemia was greater than 100 µM in each case. Also, the TGI with RXF 393 renal, in the assay with SF-268 CNS, with SK-MEL-5 melanoma and with UACC-257 melanoma was greater than 100 µM throughout.
Take `CCOc1cccc2cccnc12`: the TGI with ACHN renal, with CCRF-CEM leukemia, with HOP-62 NSCLC, in the assay with HT29 colon, in the assay on OVCAR-8 ovarian and with RPMI-8226 leukemia was greater than 100 µM in each case. Also, the TGI in the assay with RXF 393 renal, in the assay on SF-268 CNS, with SK-MEL-5 melanoma and in the assay on UACC-257 melanoma was greater than 100 µM throughout.
Turning to `c1cc(C2O[C@H]3CCCN3[C@@H]2c2ccncc2)ccn1` (some centres undefined), the TGI with ACHN renal, with CCRF-CEM leukemia, in the assay on HOP-62 NSCLC, in the assay with HT29 colon, with OVCAR-8 ovarian and with RPMI-8226 leukemia was greater than 100 µM throughout. Besides, the TGI in the assay with RXF 393 renal, in the assay with SF-268 CNS, with SK-MEL-5 melanoma and in the assay with UACC-257 melanoma was greater than 100 µM in each case.
For `COC1=C(NC(C)=O)C(=O)c2nc3n(c2C1=O)CCC3`, the TGI is 40.7 µM in the assay on ACHN renal; 14.1 µM with CCRF-CEM leukemia; 39.9 µM in the assay on HOP-62 NSCLC; 66.2 µM in the assay on HT29 colon; 33.5 µM with OVCAR-8 ovarian; greater than 79.2 µM with RPMI-8226 leukemia. The TGI with RXF 393 renal worked out at 31.7 µM; in the assay on SF-268 CNS, 33.2 µM; in the assay with SK-MEL-5 melanoma, 31.5 µM; in the assay with UACC-257 melanoma it was 30.4 µM.
Consider `COc1cccc(-n2cnc3c(N/N=C/c4ccncc4)ncnc32)c1`, for which the GI50 in the assay with ACHN renal was 9.06 µM; with CCRF-CEM leukemia it was greater than 25 µM; in the assay on HOP-62 NSCLC, greater than 25 µM; with HT29 colon, 8.07 µM; in the assay on OVCAR-8 ovarian, greater than 20.6 µM; in the assay on RPMI-8226 leukemia, greater than 25 µM. For the same compound, the GI50 was 6.42 µM in the assay on RXF 393 renal, 24.5 µM with SF-268 CNS, 10.5 µM in the assay on SK-MEL-5 melanoma and greater than 19.7 µM with UACC-257 melanoma. The TGI in the assay on ACHN renal, in the assay with CCRF-CEM leukemia, in the assay with HOP-62 NSCLC, in the assay with HT29 colon, with OVCAR-8 ovarian and with RPMI-8226 leukemia was greater than 25 µM throughout. Besides, the TGI in the assay on RXF 393 renal, in the assay on SF-268 CNS, with SK-MEL-5 melanoma and in the assay with UACC-257 melanoma was greater than 25 µM throughout.
As for `O=C(O)c1cc(/C=C/c2ccc(O)c(O)c2)ccc1O`, the TGI was greater than 100 µM in the assay on ACHN renal; 82.1 µM in the assay on CCRF-CEM leukemia; greater than 100 µM in the assay on HOP-62 NSCLC; greater than 100 µM with HT29 colon; greater than 100 µM in the assay with OVCAR-8 ovarian; greater than 100 µM in the assay on RPMI-8226 leukemia. The TGI in the assay on RXF 393 renal, in the assay on SF-268 CNS, in the assay on SK-MEL-5 melanoma and in the assay on UACC-257 melanoma was greater than 100 µM each time.
Turning to `CC(=O)c1c[nH]c2ccc(-c3ccnc(Nc4ccc(NC(=O)c5cccc(F)c5)c(CN5CCOCC5)c4)n3)cc12`, the GI50 was 0.0845 µM in the assay with ACHN renal; 0.134 µM in the assay with CCRF-CEM leukemia; 0.221 µM in the assay on HOP-62 NSCLC; 0.146 µM in the assay with HT29 colon; 0.255 µM with OVCAR-8 ovarian; 0.325 µM in the assay on RPMI-8226 leukemia. The GI50 in the assay with RXF 393 renal is 0.0221 µM; with SF-268 CNS it was 0.225 µM; with SK-MEL-5 melanoma, 0.135 µM; in the assay on UACC-257 melanoma, 0.304 µM. The TGI in the assay on ACHN renal is 3.1 µM; in the assay on CCRF-CEM leukemia, greater than 100 µM; with HOP-62 NSCLC, 18.7 µM; in the assay on OVCAR-8 ovarian, greater than 100 µM; in the assay with RPMI-8226 leukemia, 1.35 µM; in the assay on RXF 393 renal it was 0.054 µM. Further, the TGI is 2.49 µM in the assay with SF-268 CNS, 0.463 µM in the assay on SK-MEL-5 melanoma and 2.65 µM in the assay on UACC-257 melanoma.
For the compound `O=C(Nc1ccc(Cl)cc1Cl)c1c/c(=N\O)c2ccc(O)cc2o1`, the TGI in the assay on ACHN renal, in the assay with CCRF-CEM leukemia, in the assay on HOP-62 NSCLC, in the assay on HT29 colon, with OVCAR-8 ovarian and with RPMI-8226 leukemia was greater than 100 µM each time. Moreover, the TGI with RXF 393 renal, in the assay on SF-268 CNS, in the assay on SK-MEL-5 melanoma and with UACC-257 melanoma was greater than 100 µM throughout.
